Measured values published in US11331299B2, “Medicinal use of serrulatane diterpenes” (The University of Sydney, priority 2016, dated 2022).

Columns and labels:
Assay in all cases: biochemical
Format in all cases: binding
[1] = target: receptors (Bioprint panel) (Homo sapiens, UniProt P32247); conditions: BOMBESIN BB3 (h) (agonist radioligand); 10 μM; read-out: % Inhibition of Control Specific Binding
[2] = target: receptors (Bioprint panel) (Homo sapiens, UniProt P41597); conditions: CHEMOKINES CCR2 (h) (agonist radioligand); 10 μM; read-out: % Inhibition of Control Specific Binding
[3] = target: receptors (Bioprint panel) (Homo sapiens, UniProt P35414); conditions: APJ (apelin) (h) (agonist radioligand); 10 μM; read-out: % Inhibition of Control Specific Binding
Sequence of receptors (Bioprint panel) (Homo sapiens, UniProt P35414) (P35414 whole entry): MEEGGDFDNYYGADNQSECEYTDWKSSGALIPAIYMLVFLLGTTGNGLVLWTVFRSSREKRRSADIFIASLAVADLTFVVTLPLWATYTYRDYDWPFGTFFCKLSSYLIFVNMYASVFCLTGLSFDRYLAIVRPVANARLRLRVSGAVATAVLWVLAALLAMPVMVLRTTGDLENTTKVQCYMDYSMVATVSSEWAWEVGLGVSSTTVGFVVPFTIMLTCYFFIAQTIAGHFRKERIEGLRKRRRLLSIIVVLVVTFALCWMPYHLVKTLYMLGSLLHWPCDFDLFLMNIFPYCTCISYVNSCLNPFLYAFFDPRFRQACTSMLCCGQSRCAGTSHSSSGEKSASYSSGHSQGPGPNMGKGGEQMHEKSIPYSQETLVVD

[4] = target: receptors (Bioprint panel) (Homo sapiens, UniProt P30411); conditions: BRADYKININ B2 (h) (agonist radioligand); 10 μM; read-out: % Inhibition of Control Specific Binding
Sequence of receptors (Bioprint panel) (Homo sapiens, UniProt P30411) (P30411 whole entry): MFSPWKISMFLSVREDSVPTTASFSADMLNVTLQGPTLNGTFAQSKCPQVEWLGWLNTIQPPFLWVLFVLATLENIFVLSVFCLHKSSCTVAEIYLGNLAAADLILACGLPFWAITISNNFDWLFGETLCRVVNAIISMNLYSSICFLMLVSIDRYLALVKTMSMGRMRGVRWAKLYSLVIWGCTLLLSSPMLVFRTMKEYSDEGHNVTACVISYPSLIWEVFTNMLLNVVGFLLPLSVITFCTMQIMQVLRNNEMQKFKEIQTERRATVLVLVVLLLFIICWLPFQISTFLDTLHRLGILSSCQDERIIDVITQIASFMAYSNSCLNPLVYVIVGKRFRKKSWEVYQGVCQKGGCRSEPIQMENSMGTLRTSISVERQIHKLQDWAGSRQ

[5] = target: receptors (Bioprint panel) (Homo sapiens, UniProt P29274); conditions: ADENOSINE A2A (h) (agonist radioligand); 10 μM; read-out: % Inhibition of Control Specific Binding
Sequence of receptors (Bioprint panel) (Homo sapiens, UniProt P29274) (P29274 whole entry): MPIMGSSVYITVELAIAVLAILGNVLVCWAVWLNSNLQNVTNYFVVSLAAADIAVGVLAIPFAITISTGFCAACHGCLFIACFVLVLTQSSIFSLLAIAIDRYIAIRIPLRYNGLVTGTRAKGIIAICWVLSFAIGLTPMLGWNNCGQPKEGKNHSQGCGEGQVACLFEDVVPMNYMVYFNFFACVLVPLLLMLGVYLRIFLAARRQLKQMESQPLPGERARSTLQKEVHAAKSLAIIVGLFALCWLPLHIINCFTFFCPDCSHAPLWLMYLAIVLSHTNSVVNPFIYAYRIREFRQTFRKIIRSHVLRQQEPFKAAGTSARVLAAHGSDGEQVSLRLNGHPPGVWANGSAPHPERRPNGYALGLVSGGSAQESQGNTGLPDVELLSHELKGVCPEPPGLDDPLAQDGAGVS

[6] = target: receptors (Bioprint panel) (Homo sapiens, UniProt P46098); conditions: read-out: % Inhibition of Control Specific Binding
[7] = target: receptors (Bioprint panel) (Homo sapiens, UniProt P34969); conditions: read-out: % Inhibition of Control Specific Binding
[8] = target: receptors (Bioprint panel) (Homo sapiens, UniProt P25021); conditions: HISTAMINE H2 (h) (antagonist radioligand); 10 μM; read-out: % Inhibition of Control Specific Binding
[9] = target: receptors (Bioprint panel) (Homo sapiens, UniProt P32239); conditions: CHOLECYSTOKININ CCK2 (CCKB) (h) (agonist radioligand); 10 μM; read-out: % Inhibition of Control Specific Binding
Sequence of receptors (Bioprint panel) (Homo sapiens, UniProt P32239) (P32239 whole entry): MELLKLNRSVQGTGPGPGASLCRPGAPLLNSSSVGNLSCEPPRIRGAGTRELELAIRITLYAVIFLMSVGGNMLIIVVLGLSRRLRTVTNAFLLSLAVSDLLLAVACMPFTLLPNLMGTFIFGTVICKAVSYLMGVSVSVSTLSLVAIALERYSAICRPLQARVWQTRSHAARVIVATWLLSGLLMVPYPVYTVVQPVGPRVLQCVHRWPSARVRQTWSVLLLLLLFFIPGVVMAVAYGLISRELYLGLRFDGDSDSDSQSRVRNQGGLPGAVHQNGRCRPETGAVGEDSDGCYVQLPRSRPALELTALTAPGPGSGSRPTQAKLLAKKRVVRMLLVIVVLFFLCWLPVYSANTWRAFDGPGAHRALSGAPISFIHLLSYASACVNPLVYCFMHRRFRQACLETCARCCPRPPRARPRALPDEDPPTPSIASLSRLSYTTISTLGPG

[10] = target: receptors (Bioprint panel) (Homo sapiens, UniProt P50052); conditions: A[…] AT2 (h) (agonist radioligand); 10 μM; read-out: % Inhibition of Control Specific Binding
Sequence of receptors (Bioprint panel) (Homo sapiens, UniProt P50052) (P50052 whole entry): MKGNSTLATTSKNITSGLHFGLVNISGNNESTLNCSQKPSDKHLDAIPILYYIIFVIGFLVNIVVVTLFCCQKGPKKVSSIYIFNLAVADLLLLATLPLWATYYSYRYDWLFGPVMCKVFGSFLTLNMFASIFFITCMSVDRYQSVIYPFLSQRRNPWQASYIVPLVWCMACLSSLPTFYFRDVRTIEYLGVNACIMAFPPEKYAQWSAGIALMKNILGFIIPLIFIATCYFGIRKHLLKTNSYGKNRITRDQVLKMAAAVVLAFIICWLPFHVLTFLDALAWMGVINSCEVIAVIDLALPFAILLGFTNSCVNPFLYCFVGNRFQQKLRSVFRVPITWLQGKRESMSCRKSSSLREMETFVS

[11] = target: receptors (Bioprint panel) (Homo sapiens, UniProt P32241); conditions: […] VPAC1 (VIP1) (h) (agonist radioligand); 10 μM; read-out: % Inhibition of Control Specific Binding
[12] = target: receptors (Bioprint panel) (Homo sapiens, UniProt P08588); conditions: […] beta 1 (h) (agonist radioligand); 10 μM; read-out: % Inhibition of Control Specific Binding
Sequence of receptors (Bioprint panel) (Homo sapiens, UniProt P08588) (P08588 whole entry): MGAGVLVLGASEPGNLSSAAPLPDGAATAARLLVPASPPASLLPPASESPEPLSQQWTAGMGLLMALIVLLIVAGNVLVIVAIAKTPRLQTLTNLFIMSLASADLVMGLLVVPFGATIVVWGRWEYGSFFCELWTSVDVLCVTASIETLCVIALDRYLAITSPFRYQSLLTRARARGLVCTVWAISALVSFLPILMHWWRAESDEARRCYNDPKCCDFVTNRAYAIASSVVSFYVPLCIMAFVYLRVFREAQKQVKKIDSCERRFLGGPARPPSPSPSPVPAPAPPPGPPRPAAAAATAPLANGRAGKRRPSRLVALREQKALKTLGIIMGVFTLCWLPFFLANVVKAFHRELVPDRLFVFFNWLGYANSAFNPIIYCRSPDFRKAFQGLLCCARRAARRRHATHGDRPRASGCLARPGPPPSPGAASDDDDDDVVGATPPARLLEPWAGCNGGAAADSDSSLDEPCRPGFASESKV

[13] = target: receptors (Bioprint panel) (Homo sapiens, UniProt P08913); conditions: […] alpha 2A (h) (antagonist radioligand); 10 μM; read-out: % Inhibition of Control Specific Binding
[14] = target: receptors (Bioprint panel) (Homo sapiens, UniProt P29275); conditions: ADENOSINE A2B (h) (antagonist radioligand); 10 μM; read-out: % Inhibition of Control Specific Binding
[15] = target: receptors (Bioprint panel) (Homo sapiens, UniProt P35368); conditions: […] alpha 1B (h) (antagonist radioligand); 10 μM; read-out: % Inhibition of Control Specific Binding
[16] = target: receptors (Bioprint panel) (Homo sapiens, UniProt P21452); conditions: NEUROKININ NK2 (h) (agonist radioligand); 10 μM; read-out: % Inhibition of Control Specific Binding
[17] = target: receptors (Bioprint panel) (Homo sapiens, UniProt P25105); conditions: […] ACTIVATED FACTOR PAF (h) (agonist radioligand); 10 μM; read-out: % Inhibition of Control Specific Binding
Sequence of receptors (Bioprint panel) (Homo sapiens, UniProt P25105) (P25105 whole entry): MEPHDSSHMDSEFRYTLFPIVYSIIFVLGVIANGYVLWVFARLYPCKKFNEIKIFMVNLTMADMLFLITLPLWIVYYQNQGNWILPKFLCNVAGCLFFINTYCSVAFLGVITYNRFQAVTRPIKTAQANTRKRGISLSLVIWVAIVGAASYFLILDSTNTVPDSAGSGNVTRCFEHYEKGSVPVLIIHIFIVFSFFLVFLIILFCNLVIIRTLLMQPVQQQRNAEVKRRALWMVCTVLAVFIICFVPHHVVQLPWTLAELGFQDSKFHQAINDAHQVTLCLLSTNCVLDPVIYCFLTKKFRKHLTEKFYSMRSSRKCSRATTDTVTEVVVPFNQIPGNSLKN

[18] = target: receptors (Bioprint panel) (Homo sapiens, UniProt P31391); conditions: SOMASTATIN sst4 (h) (agonist radioligand); 10 μM; read-out: % Inhibition of Control Specific Binding
[19] = target: receptors (Bioprint panel) (Mus musculus, UniProt Q01727); conditions: MELANOCORTIN MC1 (agonist radioligand); 10 μM; read-out: % Inhibition of Control Specific Binding
Sequence of receptors (Bioprint panel) (Mus musculus, UniProt Q01727) (Q01727 whole entry): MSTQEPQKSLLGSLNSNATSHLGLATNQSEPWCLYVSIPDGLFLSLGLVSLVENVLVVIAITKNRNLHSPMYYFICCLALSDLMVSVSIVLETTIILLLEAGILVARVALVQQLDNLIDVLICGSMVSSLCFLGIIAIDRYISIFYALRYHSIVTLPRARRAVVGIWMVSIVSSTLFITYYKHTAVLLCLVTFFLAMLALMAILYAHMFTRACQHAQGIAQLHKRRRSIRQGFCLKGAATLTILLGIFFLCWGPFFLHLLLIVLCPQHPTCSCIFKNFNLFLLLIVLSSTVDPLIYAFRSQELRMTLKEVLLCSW

[20] = target: receptors (Bioprint panel) (Homo sapiens, UniProt P35348); conditions: […] alpha 1A (h) (antagonist radioligand); 10 μM; read-out: % Inhibition of Control Specific Binding
Sequence of receptors (Bioprint panel) (Homo sapiens, UniProt P35348) (P35348 whole entry): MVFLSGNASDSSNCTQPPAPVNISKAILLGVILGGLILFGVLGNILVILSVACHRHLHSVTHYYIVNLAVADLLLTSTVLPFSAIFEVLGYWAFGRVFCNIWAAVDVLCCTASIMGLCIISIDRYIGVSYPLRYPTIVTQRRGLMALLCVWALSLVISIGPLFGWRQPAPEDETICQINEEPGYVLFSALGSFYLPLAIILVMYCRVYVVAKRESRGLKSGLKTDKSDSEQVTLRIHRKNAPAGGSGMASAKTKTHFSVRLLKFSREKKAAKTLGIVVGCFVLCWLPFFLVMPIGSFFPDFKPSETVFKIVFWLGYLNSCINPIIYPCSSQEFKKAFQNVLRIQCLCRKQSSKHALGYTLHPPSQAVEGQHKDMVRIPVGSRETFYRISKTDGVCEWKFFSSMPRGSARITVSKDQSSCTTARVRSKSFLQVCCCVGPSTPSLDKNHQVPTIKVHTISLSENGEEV

[21] = target: receptors (Bioprint panel) (Homo sapiens, UniProt P13945); conditions: Adrenergic beta3; 10 μM; read-out: % Inhibition of Control Specific Binding
[22] = target: receptors (Bioprint panel) (Homo sapiens, UniProt P24530); conditions: […] (h) (agonist radioligand); 10 μM; read-out: % Inhibition of Control Specific Binding
Sequence of receptors (Bioprint panel) (Homo sapiens, UniProt P24530) (P24530 27-442): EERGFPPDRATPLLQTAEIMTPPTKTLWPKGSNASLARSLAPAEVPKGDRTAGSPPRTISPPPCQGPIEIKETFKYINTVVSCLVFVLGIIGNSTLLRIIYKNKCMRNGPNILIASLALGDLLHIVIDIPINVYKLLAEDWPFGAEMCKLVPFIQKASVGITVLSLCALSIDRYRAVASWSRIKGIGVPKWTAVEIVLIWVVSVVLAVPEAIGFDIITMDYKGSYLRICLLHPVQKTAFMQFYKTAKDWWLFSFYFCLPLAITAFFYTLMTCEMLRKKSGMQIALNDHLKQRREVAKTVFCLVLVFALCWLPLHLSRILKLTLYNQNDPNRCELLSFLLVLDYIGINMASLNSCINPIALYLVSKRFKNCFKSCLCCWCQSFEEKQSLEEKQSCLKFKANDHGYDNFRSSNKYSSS

[23] = target: receptors (Bioprint panel) (Homo sapiens, UniProt P30518); conditions: VASOPRESSIN V2 (h) (agonist radioligand); 10 μM; read-out: % Inhibition of Control Specific Binding
Sequence of receptors (Bioprint panel) (Homo sapiens, UniProt P30518) (P30518 whole entry): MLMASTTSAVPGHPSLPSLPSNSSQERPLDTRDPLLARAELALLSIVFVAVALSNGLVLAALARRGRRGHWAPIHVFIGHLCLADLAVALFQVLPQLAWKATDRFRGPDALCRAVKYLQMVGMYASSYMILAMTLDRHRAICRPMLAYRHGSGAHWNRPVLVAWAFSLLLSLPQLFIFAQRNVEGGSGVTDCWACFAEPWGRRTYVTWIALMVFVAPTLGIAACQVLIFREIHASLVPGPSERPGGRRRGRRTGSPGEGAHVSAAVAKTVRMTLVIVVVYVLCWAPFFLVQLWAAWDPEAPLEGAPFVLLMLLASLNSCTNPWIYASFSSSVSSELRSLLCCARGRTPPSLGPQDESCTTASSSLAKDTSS

[24] = target: receptors (Bioprint panel) (Homo sapiens, UniProt Q9Y5N1); conditions: HISTAMINE H3 (h) (agonist radioligand); 10 μM; read-out: % Inhibition of Control Specific Binding
[25] = target: receptors (Bioprint panel) (Homo sapiens, UniProt P02708); conditions: NICOTINIC […] N muscle-type (h) (antagonist radioligand); 10 μM; read-out: % Inhibition of Control Specific Binding
Sequence of receptors (Bioprint panel) (Homo sapiens, UniProt P02708) (P02708 whole entry): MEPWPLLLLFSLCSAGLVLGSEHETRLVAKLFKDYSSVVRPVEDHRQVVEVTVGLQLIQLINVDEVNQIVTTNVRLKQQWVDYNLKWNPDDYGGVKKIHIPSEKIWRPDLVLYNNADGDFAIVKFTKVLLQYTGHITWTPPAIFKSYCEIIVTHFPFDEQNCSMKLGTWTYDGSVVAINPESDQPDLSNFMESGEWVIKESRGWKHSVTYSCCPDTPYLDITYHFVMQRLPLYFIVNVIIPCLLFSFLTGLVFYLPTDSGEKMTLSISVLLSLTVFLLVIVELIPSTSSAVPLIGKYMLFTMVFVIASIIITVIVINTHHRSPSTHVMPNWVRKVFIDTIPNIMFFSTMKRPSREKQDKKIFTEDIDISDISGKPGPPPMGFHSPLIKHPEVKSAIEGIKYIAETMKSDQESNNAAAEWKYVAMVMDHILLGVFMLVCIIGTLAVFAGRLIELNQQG

CC(C)=CCC[C@H](CO)[C@@H]1CC[C@@H](C)c2c1cc(C)c(O)c2O [Compound 1, 7,8,18-trihydroxyserrulat-14-ene]
inhibition at 10 µM [1]: 26% | inhibition at 10 µM [2]: 48% | inhibition at 10 µM [3]: 24% | inhibition at 10 µM [4]: -37% | inhibition at 10 µM [5]: 18% | inhibition at 10 µM [6]: -2% | inhibition at 10 µM [7]: 14% | inhibition at 10 µM [8]: 37% | inhibition at 10 µM [9]: 6% | inhibition at 10 µM [10]: 54% | inhibition at 10 µM [11]: -9% | inhibition at 10 µM [12]: 19% | inhibition at 10 µM [13]: 35% | inhibition at 10 µM [14]: 8% | inhibition at 10 µM [15]: 41% | inhibition at 10 µM [16]: 52% | inhibition at 10 µM [17]: 39% | inhibition at 10 µM [18]: 40% | inhibition at 10 µM [19]: 11% | inhibition at 10 µM [20]: 17% | inhibition at 10 µM [21]: 33% | inhibition at 10 µM [22]: 40% | inhibition at 10 µM [23]: 11% | inhibition at 10 µM [24]: 10% | inhibition at 10 µM [25]: 1%
